Source: US9237750B2, “Ornidazole and related compounds for use as herbicides” (RAMOT AT TEL-AVIV UNIVERSITY LTD., priority 2012, dated 2016)

What was measured:
Anabaena PCC7120 = assay: Net O2 exchange (photosynthesis and respiration), O2 electrode; type: cell-based, Anabaena PCC7120 (Cyanobacteria)
Description: (§1) The cyanobacterium Anabaena PCC7120 was grown in BG-11 medium as was previously described (Marcus Y, et al., 2005. J Bacteriol 187, 4222-4228). The green eukaryotic alga Dunaliella salina was grown on a medium described by Ben-Amotz and Avron (Ben-Amotz A and Avron M 1983. Plant Physiol 72, 593-597), under 20 μmol photons m^−2 sec^−1 at 30° C. The aquatic plant Lemna was collected from an open pond at the Botanical garden of Tel Aviv University. Seedlings of Avena sterilis were grown in pots in a greenhouse. The marine diatom Phaeodactylum tricornutum was grown as described in Haimovich-Dayan et al. (Haimovich-Dayan M. et al. 2012. New Phytol 195:177-185).
(§2) The rate of net O2 exchange was determined using a Clark-type O2 electrode (Rank Brothers Ltd, UK). Fluorescent measurements (quantum yield, photochemical and non photochemical quenching) were determined using a modulated fluorometer (PAM, Walz, Germany) as described by Schreiber et al. (Schreiber U et al., 1986. fluorometer. Photosynth Res 10, 51-62) and Snir et al. (Snir A, et al., 2006. Photosynth Res 90, 233-242).
(§3) The algae Anabaena PCC7120 (Cyanobacteria), Dunaliella salina (Chlorophyta) and Phaeodactylum tricornutum (Diatoms) were each grown in its suitable medium as described hereinabove towards the mid logarithmic phase. 1 mM Ornidazole was then added to the medium for 5 min, and respiration and photosynthesis were measured for at least 10 min.
The effect of Ornidazole on the rate of photosynthesis of Anabaena was also determined. The algae were grown under various light intensities and saturating inorganic carbon (Ci) concentration, or under various Ci concentrations and saturating irradiance.

[1] = tested on: photosynthetic electron transport in Anabaena; assay: Photosynthetic electron transport from H2O via reaction centers II and I and Methyl viologen to O2; type: cell-based, Anabaena PCC7120; conditions: water to Methyl viologen (1 mM) to oxygen; O2 electrode
Description: The rates were determined for cells grown in a growth medium at 30° C. under 180 μmol photons×m^−2×sec^−1. The rate of electron transport from H2O via reaction centers II and I and Methyl viologen to O2 was determined in the presence of 1 mM methyl viologen using an O2 electrode. The effects of Ornidazole on the dark and light reactions of the photosynthetic apparatus were examined. Ornidazole had no effect on the photosynthetic electron transport in Anabaena measured from water as electron donor through the two reaction centers to Methyl viologen and finally to oxygen as an electron acceptor (FIG. 5).

[2] = target: triose phosphate isomerase (Homo sapiens, UniProt P60174); conditions: glycolytic triose phosphate isomerase; cited from earlier work
Dunaliella salina = assay: Net O2 exchange (photosynthesis and respiration), O2 electrode; type: cell-based, Dunaliella salina (Chlorophyta)
Description: as §1, §2, §3

[3] = Anabaena PCC7120, 1 mM Ornidazole added for 5 min
[4] = Dunaliella salina, 1 mM Ornidazole added for 5 min

triose phosphate isomerase, sequence (P60174 whole entry, species assumed): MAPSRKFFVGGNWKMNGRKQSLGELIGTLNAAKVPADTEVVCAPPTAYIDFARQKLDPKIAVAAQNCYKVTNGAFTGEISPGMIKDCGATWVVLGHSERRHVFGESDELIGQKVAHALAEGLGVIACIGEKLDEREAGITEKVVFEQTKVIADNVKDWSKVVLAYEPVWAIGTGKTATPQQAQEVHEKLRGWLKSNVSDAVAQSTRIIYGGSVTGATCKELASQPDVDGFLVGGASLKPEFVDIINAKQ

Cc1ncc([N+](=O)[O-])n1CC(O)CCl (stereo not drawn) [Ornidazole, 1-chloro-3-(2-methyl-5-nitro-1H-imidazol-1-yl)propan-2-ol]
Photosynthesis (Anabaena PCC7120; [3]): −3.7 μmol O2 mg^−1 chl h^−1
Respiration (Anabaena PCC7120; [3]): −26.5 μmol O2 mg^−1 chl h^−1
inhibition at 1000 µM (Anabaena PCC7120; Anabaena, 1 mM, read-out: inhibition of respiration rate): 30 to 35%
effect on photosynthesis (Anabaena PCC7120; Anabaena, higher concentrations (than 1 mM) or longer incubation time): abolished photosynthesis
effect on photosynthetic rate (Anabaena PCC7120; limiting irradiance): inhibited the photosynthetic rate to a lesser extent
effect on photosynthetic rate (Anabaena PCC7120; saturating irradiance at any Ci concentration): concentration-dependent decrease in the photosynthetic rate
effect on photosynthetic electron transport [1]: no effect
inhibition of enzyme activity [2]: inhibits the activity
Photosynthesis (Dunaliella salina; [4]): 17.88 μmol O2 mg^−1 chl h^−1
Respiration (Dunaliella salina; [4]): −3.13 μmol O2 mg^−1 chl h^−1
inhibition at 1000 µM (Dunaliella salina; Dunaliella salina, Dunaliella, 1 mM, read-out: inhibition of respiration rate): 30 to 35%
effect on photosynthesis (Dunaliella salina; Dunaliella, higher concentrations (than 1 mM) or longer incubation time): abolished photosynthesis
